According to PubChem BioAssay AID2060603 (Molecular Pharmacology Branch, DTP, NCI, 2025):

System: 422866-222-R5-J1-PDC spheroid viability
Assay: Anticancer human tumor 422866-222-R5-J1-PDC patient-derived pancreatic adenocarcinoma cell line growth inhibition [CLK]
Details: spheroids with HUVEC and MSC; for IC50: curve of first compound; for viability, T/C: stronger effect = lower value
How it was run: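 Patient-derived tumor cells grown as complex spheroids with HUVEC endothelial cells and mesenchymal stem cells, treated with drug combinations. Concentrations descend in half-log steps from near clinical Cmax, or from 10 microM if Cmax unknown.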

[1] = second compound 0.0316 µM, first compound 0.0316 µM
[2] = second compound 0.0316 µM, first compound 0.1 µM
[3] = second compound 0.0316 µM, first compound 0.316 µM
[4] = second compound 0.0316 µM, first compound 1 µM
[5] = second compound 0.1 µM, first compound 0.0316 µM
[6] = second compound 0.1 µM, first compound 0.1 µM
[7] = second compound 0.1 µM, first compound 0.316 µM
[8] = second compound 0.1 µM, first compound 1 µM
[9] = second compound 0.316 µM, first compound 0.0316 µM
[10] = second compound 0.316 µM, first compound 0.1 µM
[11] = second compound 0.316 µM, first compound 0.316 µM
[12] = second compound 0.316 µM, first compound 1 µM
[13] = second compound 1 µM, first compound 0.0316 µM
[14] = second compound 1 µM, first compound 0.1 µM
[15] = second compound 1 µM, first compound 0.316 µM
[16] = second compound 1 µM, first compound 1 µM
[17] = second compound 3.16 µM, first compound 0.0316 µM
[18] = second compound 3.16 µM, first compound 0.1 µM
[19] = second compound 3.16 µM, first compound 0.316 µM
[20] = second compound 3.16 µM, first compound 1 µM
[21] = second compound 10 µM, first compound 0.0316 µM
[22] = second compound 10 µM, first compound 0.1 µM
[23] = second compound 10 µM, first compound 0.316 µM
[24] = second compound 10 µM, first compound 1 µM
[25] = second compound 0.0316 µM, first compound 3.16 µM
[26] = second compound 0.0316 µM, first compound 10 µM
[27] = second compound 0.1 µM, first compound 3.16 µM
[28] = second compound 0.1 µM, first compound 10 µM
[29] = second compound 0.316 µM, first compound 3.16 µM
[30] = second compound 0.316 µM, first compound 10 µM
[31] = second compound 1 µM, first compound 3.16 µM
[32] = second compound 1 µM, first compound 10 µM
[33] = second compound 3.16 µM, first compound 3.16 µM
[34] = second compound 3.16 µM, first compound 10 µM
[35] = second compound 10 µM, first compound 3.16 µM
[36] = second compound 10 µM, first compound 10 µM
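Further: spheroids exposed to agents for seven days before readout.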

CCc1c2c(nc3ccc(O)cc13)-c1cc3c(c(=O)n1C2)COC(=O)[C@]3(O)CC + CN1CCN(c2cc(C(=O)Nc3cc4cc(-c5cnn(C)c5)ccc4cn3)ccn2)CC1
IC50 (second compound 0.0316 µM): < 3.16 nM
IC50 (second compound 0.1 µM): 4.48 nM
IC50 (second compound 0.316 µM): < 3.16 nM
IC50 (second compound 1 µM): < 3.16 nM
IC50 (second compound 3.16 µM): < 3.16 nM
IC50 (second compound 10 µM): < 3.16 nM
viability, T/C (second compound 0.0316 µM, first compound 0.00316 µM): 49.4%
viability, T/C (second compound 0.0316 µM, first compound 0.01 µM): 41.2%
viability, T/C [1]: 37.6%
viability, T/C [2]: 37.1%
viability, T/C [3]: 27.9%
viability, T/C [4]: 20.3%
viability, T/C (second compound 0.1 µM, first compound 0.00316 µM): 54%
viability, T/C (second compound 0.1 µM, first compound 0.01 µM): 42.3%
viability, T/C [5]: 34.8%
viability, T/C [6]: 40%
viability, T/C [7]: 24.7%
viability, T/C [8]: 24.3%
viability, T/C (second compound 0.316 µM, first compound 0.00316 µM): 52.9%
viability, T/C (second compound 0.316 µM, first compound 0.01 µM): 44.1%
viability, T/C [9]: 45.7%
viability, T/C [10]: 31.9%
viability, T/C [11]: 24.2%
viability, T/C [12]: 25.2%
viability, T/C (second compound 1 µM, first compound 0.00316 µM): 12.3%
viability, T/C (second compound 1 µM, first compound 0.01 µM): 12.7%
viability, T/C [13]: 12.4%
viability, T/C [14]: 14.1%
viability, T/C [15]: 30.5%
viability, T/C [16]: 24.3%
viability, T/C (second compound 3.16 µM, first compound 0.00316 µM): 6.01%
viability, T/C (second compound 3.16 µM, first compound 0.01 µM): 8.18%
viability, T/C [17]: 12.9%
viability, T/C [18]: 19%
viability, T/C [19]: 25.1%
viability, T/C [20]: 31.6%
viability, T/C (second compound 10 µM, first compound 0.00316 µM): 1.14%
viability, T/C (second compound 10 µM, first compound 0.01 µM): 0.8%
viability, T/C [21]: 2.73%
viability, T/C [22]: 2.68%
viability, T/C [23]: 4.83%
viability, T/C [24]: 5.54%

Nc1ccn(C2OC(CO)C(O)C2(F)F)c(=O)n1 (stereo unspecified) + CN1CCN(c2cc(C(=O)Nc3cc4cc(-c5cnn(C)c5)ccc4cn3)ccn2)CC1
IC50 (second compound 0.0316 µM): 74.3 nM
IC50 (second compound 0.1 µM): 84.6 nM
IC50 (second compound 0.316 µM): 156 nM
IC50 (second compound 1 µM): < 31.6 nM
IC50 (second compound 3.16 µM): < 31.6 nM
IC50 (second compound 10 µM): < 31.6 nM
viability, T/C [1]: 62.9%
viability, T/C [2]: 46.5%
viability, T/C [3]: 37.8%
viability, T/C [4]: 42%
viability, T/C [25]: 40.3%
viability, T/C [26]: 38.1%
viability, T/C [5]: 74.4%
viability, T/C [6]: 44.9%
viability, T/C [7]: 57.2%
viability, T/C [8]: 45.2%
viability, T/C [27]: 38.7%
viability, T/C [28]: 37.5%
viability, T/C [9]: 66.9%
viability, T/C [10]: 50.9%
viability, T/C [11]: 46.9%
viability, T/C [12]: 55.9%
viability, T/C [29]: 45.6%
viability, T/C [30]: 46%
viability, T/C [13]: 25.9%
viability, T/C [14]: 20.6%
viability, T/C [15]: 21.3%
viability, T/C [16]: 16.7%
viability, T/C [31]: 19.1%
viability, T/C [32]: 14.9%
viability, T/C [17]: 8.63%
viability, T/C [18]: 8.77%
viability, T/C [19]: 10.5%
viability, T/C [20]: 9.38%
viability, T/C [33]: 10.2%
viability, T/C [34]: 10.9%
viability, T/C [21]: 1.24%
viability, T/C [22]: 1.59%
viability, T/C [23]: 1.16%
viability, T/C [24]: 1.57%
viability, T/C [35]: 4.23%
viability, T/C [36]: 3.93%

O=c1[nH]cc(F)c(=O)[nH]1 + CN1CCN(c2cc(C(=O)Nc3cc4cc(-c5cnn(C)c5)ccc4cn3)ccn2)CC1
IC50 (second compound 0.0316 µM): > 10000 nM
IC50 (second compound 0.1 µM): > 10000 nM
IC50 (second compound 0.316 µM): > 10000 nM
IC50 (second compound 1 µM): < 31.6 nM
IC50 (second compound 3.16 µM): < 31.6 nM
IC50 (second compound 10 µM): < 31.6 nM
viability, T/C [1]: 116%
viability, T/C [2]: 129%
viability, T/C [3]: 114%
viability, T/C [4]: 95.6%
viability, T/C [25]: 86.9%
viability, T/C [26]: 77.1%
viability, T/C [5]: 125%
viability, T/C [6]: 104%
viability, T/C [7]: 108%
viability, T/C [8]: 90.5%
viability, T/C [27]: 84.7%
viability, T/C [28]: 91%
viability, T/C [9]: 90.4%
viability, T/C [10]: 100%
viability, T/C [11]: 91.9%
viability, T/C [12]: 96.1%
viability, T/C [29]: 80.7%
viability, T/C [30]: 80.6%
viability, T/C [13]: 24.2%
viability, T/C [14]: 19.1%
viability, T/C [15]: 25.6%
viability, T/C [16]: 17.9%
viability, T/C [31]: 23.7%
viability, T/C [32]: 22.5%
viability, T/C [17]: 8.44%
viability, T/C [18]: 10.5%
viability, T/C [19]: 9.21%
viability, T/C [20]: 8.88%
viability, T/C [33]: 10.5%
viability, T/C [34]: 9.67%
viability, T/C [21]: 1.68%
viability, T/C [22]: 1.08%
viability, T/C [23]: 0.97%
viability, T/C [24]: 1.08%
viability, T/C [35]: 3.1%
viability, T/C [36]: 1.13%
